Like-named read-outs stand apart in the source and are kept apart here.
What was measured:
[1] = test system: IL2 activation in human PBMC; test: IL2 activity assay (ELISA) in human PBMC; type: cell-based; conditions: CD3/CD28 antibody, 24 h
Protocol: The compound was diluted with DMSO in a dilution plate, with a maximum starting concentration of 10 μM, 8 concentration gradient points (3-fold dilution), and then added to the 96-well plate along with the addition of 5 µg/ml CD28 antibody. Incubation was performed for 24 h. • (3) The ELISA plate was washed twice with PBS, and an ELISA dilution was added at 100 µl/well. Then 100 μl of the standard and the incubated samples obtained in step 2 were added separately, and incubated for 2 h at room temperature. • (4) Each well was washed 3 times by adding with 400 μl washing buffer per well, and was finally blotted to dryness with a clean absorbent paper. • (5) 200 μl of the IL2 conjugate was added per well, covered with a fresh tape, and incubated for 2 h at room temperature. Step (4) was repeated. • (6) 200 μl of the substrate was added per well under the protection from light. The plate was incubated at room temperature for 20 min. • (7) 50 μL of a stop solution was added per well. The color of the wells should be from blue to yellow. Signals at […] were read by a microplate reader, and the signal intensity was used to characterize the activity level of IL2. EC50 values were obtained by fitting using the Prism software.

human HPK1 [2] = molecular target: T1, human HPK1 (Homo sapiens, UniProt Q92918); test: Assay of in vitro HPK1 enzymatic activity (ADP-Glo); type: biochemical; conditions: 7 nM kinase, 20 uM ATP
T1 sequence (Q92918 whole entry): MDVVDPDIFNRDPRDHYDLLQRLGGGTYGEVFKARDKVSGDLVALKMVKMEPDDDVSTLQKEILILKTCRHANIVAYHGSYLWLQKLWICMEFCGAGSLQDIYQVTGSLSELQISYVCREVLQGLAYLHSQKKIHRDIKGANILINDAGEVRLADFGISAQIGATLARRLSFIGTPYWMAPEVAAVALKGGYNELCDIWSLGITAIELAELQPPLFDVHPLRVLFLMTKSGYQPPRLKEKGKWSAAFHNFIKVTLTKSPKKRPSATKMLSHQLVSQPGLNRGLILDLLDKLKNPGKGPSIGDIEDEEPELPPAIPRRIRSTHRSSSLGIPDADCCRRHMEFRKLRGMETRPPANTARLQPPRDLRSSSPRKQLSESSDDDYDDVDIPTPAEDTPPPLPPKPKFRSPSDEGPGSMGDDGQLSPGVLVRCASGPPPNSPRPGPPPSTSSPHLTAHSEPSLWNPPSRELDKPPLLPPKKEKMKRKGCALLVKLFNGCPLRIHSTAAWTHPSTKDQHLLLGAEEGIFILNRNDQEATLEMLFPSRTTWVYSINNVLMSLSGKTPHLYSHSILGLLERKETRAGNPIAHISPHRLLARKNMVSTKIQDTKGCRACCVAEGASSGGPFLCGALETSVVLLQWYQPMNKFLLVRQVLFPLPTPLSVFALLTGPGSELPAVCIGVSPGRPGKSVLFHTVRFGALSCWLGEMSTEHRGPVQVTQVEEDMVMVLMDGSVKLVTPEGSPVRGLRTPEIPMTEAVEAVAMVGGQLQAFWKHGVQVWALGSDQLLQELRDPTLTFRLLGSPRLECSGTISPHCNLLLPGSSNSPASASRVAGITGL
Protocol: Compounds were evaluated for their ability to inhibit human HPK1 by IC50 determination using the ADP-Glo method to measure the kinase activity.
Buffer conditions of the enzyme: 50 mM Hepes (pH 7.5), 10 mM MgCl2, 1 mM EGTA, 0.01% Brij35, 2 mM DTT.
Preparation of the Kinase and substrate mixture: the working concentration of the kinase in the HPK1 reaction solution was 7 nM and the working concentration of ATP was 20 uM.
The compound was diluted with DMSO in a dilution plate, with a maximum starting concentration of 1 uM and 10 concentration gradient points (4-fold dilution).
Each of the above 10 concentration gradient points of the compound was then diluted 50-fold into the kinase reaction buffer and shaken on a shaker for 20 min. The kinase was prepared in an enzyme reaction buffer and 2 μl of the HPK1 kinase was added per well of the reaction plate at a HPK1 kinase concentration of 7 nM.
1 μl of diluted compound in the buffer was added per well, and the plate was sealed with a plate sealing film, centrifuged at 1000 g for 30 seconds, and left at room temperature for 10 minutes. An ATP solution was prepared with an enzyme reaction buffer and 2 μl of the ATP solution was added to the reaction plate (the working concentration of ATP was 20 uM). The plate was sealed with a plate sealing film, centrifuged at 1000 g for 30 seconds, and reacted at room temperature for 60 minutes. 4 μL of ADP-Glu was transferred to a 384 reaction plate, centrifuged at 1000 rpm/min for 1 min, and incubated at 25° C. for 40 min. 8 μL of the Detection solution was transferred to a 384 reaction plate, centrifuged at 1000 rpm/min for 1 min, and incubated at 25° C. for 40 min. The RLU (Relative luminescence unit) signal was read using a BMG microplate reader, and the signal intensity was used to characterize the activity level of the kinase.
The kinase activity data was expressed by comparing the kinase activity of the test compound and the blank group (containing only DMSO), and the IC50 value was obtained by curve fitting using the Prism software (GraphPad7.0).

human HPK1 [3] = molecular target: T1, human HPK1; test: HPK1 protein degradation assay (WB) in RAMOS cell line; type: cell-based; design: The RAMOS cell line was selected as the degradation cell line; endogenous in cells; host or cells: RAMOS; conditions: RAMOS cells, 16 h, Western blot
Protocol: Degradation of HPK1 proteins and DC50/Dmax were determined by the WB method in order to evaluate the in vitro degradative ability of the compound.
The RAMOS cell line was selected as the degradation cell line. Incubation Conditions: RMPI 1640 culture medium supplemented with 10% FBS, 37° C., 5% CO2.
• (1) Plating cells: in a 6 cm dish with 4 ml of the culture medium, cells plated at 2×10^6 cells/dish. • (2) Drug addition: the compound (stock solution concentration: 10 mM) was diluted with DMSO in a dilution plate, with a maximum starting concentration of 10 μM and 7 concentration gradient points (3-fold dilution). 4 μl of each diluted solution was taken, added to a dish, and incubated for 16 h. • (3) Cells were harvested, added with a lysis buffer, and centrifuged at 12000 rpm/min for 20 min. The supernatant was collected. After quantification using a BCA quantification kit, 5× loading buffer was added to denature for 10 min. • (4) 10 μg of denatured protein was added to the SDS-PAGE gel. After electrophoresis and membrane transfer, the plate was blocked with 5% BSA for 1 h, incubate with the primary antibody at 4° C. overnight. After washing off the primary antibody, the secondary antibody was added, incubated at room temperature for 1 h, and washed off.
Imaging: the membranes were scanned with a two-color fluorescence imaging system.

[4] = Pharmacokinetics of single administration in mice; type: in vivo, Balb/c mice; design: Vz: unit not given here; conditions: for clearance / half-life / AUC / bioavailability / Cmax: female, Balb/c, mouse, plasma; for AUC: read-out: AUC; for bioavailability: po 10 mg/kg vs iv 2 mg/kg; for Cmax: read-out: Cmax
Protocol: Female Balb/c mice (weighing 18-22 g) were fasted overnight prior to the experiment. The test compound was dissolved in the vehicle, DMSO:PEG400:30% captisol:HCl=5:20:70:5 (v/v/v/v), and administered by single oral gavage at a dose of 10 mg/kg or by intravenous injection at a dose of 2 mg/kg. Blood samples were collected from the orbital venous plexus at 15 minutes, 30 minutes, and 1, 2, 4, 6, 8, and 24 h after administration. Approximately 0.08 mL of blood was collected at each time point and placed in a 1.5 mL centrifuge tube containing EDTA-2K anticoagulant. Blood samples were centrifuged (3200 g, 10 min, 4° C.) within 2 h to obtain plasma samples. Plasma samples were frozen at −70° C. to −80° C. in an ultra-low temperature freezer prior to processing. Before sample processing, the plasma samples were taken out of the freezer. After thawing at room temperature, 20 μL of each plasma sample was added into a 96-well plate, and then 120 μL of acetonitrile containing an internal standard was added to precipitate proteins. […] The supernatant was taken and mixed with an equal volume of 0.1% aqueous formic acid solution for LC-MS/MS analysis.

SMILES | EC50 [1] [µM] | IC50 (human HPK1 [2]) [µM] | DC50 (human HPK1 [3]) [µM] | Dmax (human HPK1 [3]) [%] | other results
CCN1CCC(n2cc(-c3c[nH]c4ncc(-c5cnc(N6CCN(CC7CCN(C(=O)c8ccc(Cl)c(N9CCC(=O)NC9=O)c8)CC7)CC6)c(C)c5)nc34)cn2)CC1 [Compound C003] | 0.111 | 0.0036 |  |  | 
CCN1CCC(n2cc(-c3c[nH]c4ncc(-c5cnc(OCC(=O)Nc6ccc(NC7CCC(=O)NC7=O)cc6)c(C)c5)nc34)cn2)CC1 (stereo not shown) [Compound C006] | 0.179 | 0.0032 |  |  | 
CCN1CCC(n2cc(-c3c[nH]c4ncc(-c5cnc(N6CCN(C7CCC(NC(=O)c8cccc(N9CCC(=O)NC9=O)c8)CC7)CC6)c(C)c5)nc34)cn2)CC1 (stereo not shown) [Compound C017] | 0.324 | 0.0009 |  |  | 
CCN1CCC(n2cc(-c3c[nH]c4ncc(-c5cnc(N6CCN(C7CCC(NC(=O)c8ccc(Cl)c(N9CCC(=O)NC9=O)c8)CC7)CC6)c(C)c5)nc34)cn2)CC1 (stereo not shown) [Compound C018] | 0.102 | 0.0018 |  |  | 
CCN1CCC(n2cc(-c3c[nH]c4ncc(-c5ccc(N6CCN(C7CCC(NC(=O)c8ccc(Cl)c(N9CCC(=O)NC9=O)c8)CC7)CC6)c(C)c5)nc34)cn2)CC1 (stereo not shown) [Compound C021] | 0.0379 | 0.0005 |  |  | 
CCN1CCC(n2cc(-c3c[nH]c4ncc(-c5cnc(OCCNC(=O)c6ccc(Cl)c(N7CCC(=O)NC7=O)c6)c(C)c5)nc34)cn2)CC1 [Compound C022] | 0.0956 | 0.0014 | 0.055 | 86 | 
CCN1CCC(n2cc(-c3c[nH]c4ncc(-c5ccc(OCC(C)(C)CNC(=O)c6ccc(Cl)c(N7CCC(=O)NC7=O)c6)nc5)nc34)cn2)CC1 [Compound C041] |  | 0.0146 |  |  | 
CCN1CCC(n2cc(-c3c[nH]c4ncc(-c5ccc(OCCCNC(=O)c6cccc(N7CCC(=O)NC7=O)c6)c(C)c5)nc34)cn2)CC1 [Compound C042] |  | 0.0021 |  |  | 
CCN1CCC(n2cc(-c3c[nH]c4ncc(-c5cnc(OC(C)CNC(=O)c6ccc(Cl)c(N7CCC(=O)NC7=O)c6)c(C)c5)nc34)cn2)CC1 (stereo not shown) [Compound C043] |  | 0.0278 |  |  | 
CCN1CCC(n2cc(-c3c[nH]c4ncc(-c5ccc(OC(C)CNC(=O)c6ccc(Cl)c(N7CCC(=O)NC7=O)c6)nc5)nc34)cn2)CC1 (stereo not shown) [Compound C044] |  | 0.0504 |  |  | 
CCN1CCC(n2cc(-c3c[nH]c4ncc(-c5cnc(OCCN(C)C(=O)c6ccc(Cl)c(N7CCC(=O)NC7=O)c6)c(C)c5)nc34)cn2)CC1 [Compound C045] |  | 0.0051 |  |  | 
C/C(=C(Cl)\C=C/CC(=O)N1CCC(CC2CCN(c3ccc(-c4cnc5[nH]cc(-c6cnn(C)c6)c5n4)cn3)CC2)CC1)N1CCC(=O)NC1=O [Compound C110] | 0.0556 |  | 0.00935 | 93 | clearance ([4]; iv 2 mg/kg): 8.27 mL/min/kg; half-life ([4]; iv 2 mg/kg): 0.98 h; AUC ([4]; iv 2 mg/kg): 4030 ng·h/mL; half-life ([4]; po 10 mg/kg): 3.35 h; bioavailability [4]: 17.7%; AUC ([4]; po 10 mg/kg): 2210 ng·h/mL; Cmax ([4]; po 10 mg/kg): 840 ng/mL; Vz ([4]; iv 2 mg/kg): 701.3
CCN1CCC(n2cc(-c3c[nH]c4ncc(-c5ccc(N6CCC(CC7CCCN(C(=O)c8ccc(Cl)c(N9CCC(=O)NC9=O)c8)CC7)CC6)cc5)nc34)cn2)CC1 (stereo not shown) [Compound C122] | 0.0599 |  |  |  | 
CCN1CCC(n2cc(-c3c[nH]c4ncc(-c5ccc(N6CCC(OC7CCN(C(=O)c8ccc(Cl)c(N9CCC(=O)NC9=O)c8)CC7)CC6)cc5)nc34)cn2)CC1 [Compound C131] | 0.0417 |  | 0.386 | 52 | 
CCN1CCC(n2cc(-c3c[nH]c4ncc(-c5ccc(N6CCC(OC7CCN(C(=O)c8ccc(Cl)c(N9CCC(=O)NC9=O)c8)CC7)CC6)c(C)c5)nc34)cn2)CC1 [Compound C132] | 0.0346 |  | 0.0293 | 73 | 
CCN1CCC(n2cc(-c3c[nH]c4ncc(-c5ccc(N6CCC(OC7CCN(C(=O)c8ccc(Cl)c(N9CCC(=O)NC9=O)c8)CC7)CC6)c(F)c5)nc34)cn2)CC1 [Compound C134] | 0.0417 |  | 0.00722 | 78 | 
CCN1CCC(n2cc(-c3c[nH]c4ncc(-c5ccc(N6CCC(CC7CCN(C(=O)c8ccc(Cl)c(N9CCC(=O)NC9=O)c8)CC7)CC6)c(F)c5)nc34)cn2)CC1 [Compound C135] | 0.0441 |  | 0.176 | 63 | 
CCN1CCC(n2cc(-c3c[nH]c4ncc(-c5ccc(N6CCC(C)(CN7CCN(C(=O)c8ccc(Cl)c(N9CCC(=O)NC9=O)c8)CC7)CC6)cc5)nc34)cn2)CC1 [Compound C139] | 0.104 |  | 0.0524 | 80.9 | 
[2H]C([2H])([2H])n1cc(-c2c[nH]c3ncc(-c4ccc(N5CCC(CC6CCN(C(=O)c7ccc(Cl)c(N8CCC(=O)NC8=O)c7)CC6)CC5)nc4)nc23)cn1 [Compound C160] | 0.0455 |  | 0.0126 | 88.8 | clearance ([4]; iv 2 mg/kg): 10.7 mL/min/kg; half-life ([4]; iv 2 mg/kg): 1.25 h; AUC ([4]; iv 2 mg/kg): 5330 ng·h/mL; half-life ([4]; po 10 mg/kg): 3.19 h; bioavailability [4]: 29.6%; AUC ([4]; po 10 mg/kg): 7960 ng·h/mL; Cmax ([4]; po 10 mg/kg): 2460 ng/mL; Vz ([4]; iv 2 mg/kg): 602
CCn1cc(-c2c[nH]c3ncc(-c4ccc(N5CCC(CC6CCN(C(=O)c7ccc(Cl)c(N8CCC(=O)NC8=O)c7)CC6)CC5)nc4)nc23)cn1 [Compound C162] | 0.0273 |  | 0.0292 | 86.5 | clearance ([4]; iv 2 mg/kg): 12.6 mL/min/kg; half-life ([4]; iv 2 mg/kg): 0.7 h; AUC ([4]; iv 2 mg/kg): 2640 ng·h/mL; half-life ([4]; po 10 mg/kg): 1.66 h; bioavailability [4]: 28%; AUC ([4]; po 10 mg/kg): 3690 ng·h/mL; Cmax ([4]; po 10 mg/kg): 1370 ng/mL; Vz ([4]; iv 2 mg/kg): 763
O=C1CCN(c2cc(C(=O)N3CCC(CC4CCN(c5ccc(-c6cnc7[nH]cc(-c8cnn(C9CC9)c8)c7n6)cn5)CC4)CC3)ccc2Cl)C(=O)N1 [Compound C170] | 0.0238 |  | 0.0522 | 87.1 | clearance ([4]; iv 2 mg/kg): 6.9 mL/min/kg; half-life ([4]; iv 2 mg/kg): 0.7 h; AUC ([4]; iv 2 mg/kg): 4830 ng·h/mL; half-life ([4]; po 10 mg/kg): 4.22 h; bioavailability [4]: 27.6%; AUC ([4]; po 10 mg/kg): 6670 ng·h/mL; Cmax ([4]; po 10 mg/kg): 1390 ng/mL; Vz ([4]; iv 2 mg/kg): 1329

Reference: US20260116884A1, “PROTAC CHIMERIC COMPOUND, PREPARATION METHOD THEREFOR AND USE THEREOF” (HANGZHOU ZHONGMEIHUADONG PHARMACEUTICAL CO., LTD., priority 2022, published 2026)
